Experimental data as given in patent EP0435794A1, “Alkenyl- or heteroaryl thio, sulfone, sulfoxy herbicides” (RHONE-POULENC AGROCHIMIE, priority 1989, dated 1991).

Tests used:
Format in all cases: in vivo
Alopecurus myosuroides = test: Exemple C: selectivity test in field crops, pre-emergence (weed); conditions: 24 days
From the text: (§1) Exemple C - Essai de sélectivité en grandes cultures avec application herbicide, en prélevée des espèces végétales
(§2) Dans des pots de 7 X 7 X 8 cm remplis de terre agricole légère, on sème un nombre de graines déterminé en fonction de l'espèce végétale et de la grosseur de la graine.
(§3) On recouvre ensuite les graines d'une couche de terre d'environ 3 mm d'épaisseur.
(§4) Les pots sont alors traités par pulvérisation de bouillie en quantité correspondant à une dose volumique d'application de 500 l/ha et contenant la matière active à la concentration désirée.
(§5) La bouillie a été préparée de la même manière qu'à l'exemple A.
(§6) Les pots traités sont ensuite placés dans des bacs destinés à recevoir l'eau d'arrosage, en subirrigation, et maintenus pendant 24 jours à température ambiante sous 70 % d'humidité relative.
(§7) Le relevé est effectué de la façon suivante:
(§8) Au bout de 24 jours, on mesure un pourcentage (D) de destruction du nombre de pieds dans le pot traité par rapport au nombre de plantes dans les pots non traités (témoin). On mesure, sur les plantes traitées restantes, le pourcentage de réduction de taille (RT) par rapport aux plantes témoins.
(§9) Le pourcentage de volume foliaire non détruit par le produit est donc donné par la formule: ([100-D] X [100-RT])/(100)= A [formula]
(§10) Cette valeur A est transformée en notation de 0 à 5 selon l'échelle suivante:
(§11) Ainsi, un produit est jugé comme sélectif vis à vis de la culture lorsque la valeur A notée est de 0 ou 1.
(§12) Les résultats obtenus sont présentés dans l'exemple C pour des doses d'application de 500, 1000, 2000 ou 4000 g de matière active par hectare selon les produits.
(§13) Les espèces végétales utilisées dans cet exemple sont: […]

Digitaria sanguinalis = test: as above; conditions: 24 days
From the text: as §1, §2, §3, §4, §5, §6, §7, §8, §9, §10, §11, §12, §13

Echinochloa crus-galli = test: as above; conditions: 24 days
From the text: as §1, §2, §3, §4, §5, §6, §7, §8, §9, §10, §11, §12, §13

Panicum milicaeum = test: as above; conditions: 24 days
From the text: as §1, §2, §3, §4, §5, §6, §7, §8, §9, §10, §11, §12, §13

Setaria faberii = test: as above; conditions: 24 days
From the text: as §1, §2, §3, §4, §5, §6, §7, §8, §9, §10, §11, §12, §13

Sorghum halepense = test: as above; conditions: 24 days
From the text: as §1, §2, §3, §4, §5, §6, §7, §8, §9, §10, §11, §12, §13

blé = test: Exemple C: selectivity test in field crops, pre-emergence (crop); conditions: 24 days, 0 or 1 = selective; note: ranges in brackets are in %
From the text: as §1, §2, §3, §4, §5, §6, §7, §8, §9, §10, §11, §12
(§14) Les espèces végétales utilisées dans cet exemple sont:
(§15) Comme on peut le voir sur le tableau de résultats de cet exemple C, de nombreux produits présentent une excellente activité antigraminée de prélevée tout en montrant une excellente sélectivité pour 1 ou 2 ou 3 ou 4 des 4 cultures testées = blé, maïs, riz, soja.

maïs = test: as above; conditions: 24 days, 0 or 1 = selective; note: ranges in brackets are in %
From the text: as §1, §2, §3, §4, §5, §6, §7, §8, §9, §10, §11, §12, §14, §15

riz = test: as above; conditions: 24 days, 0 or 1 = selective; note: ranges in brackets are in %
From the text: as §1, §2, §3, §4, §5, §6, §7, §8, §9, §10, §11, §12, §14, §15

soja = test: as above; conditions: 24 days, 0 or 1 = selective; note: ranges in brackets are in %
From the text: as §1, §2, §3, §4, §5, §6, §7, §8, §9, §10, §11, §12, §14, §15

| SMILES | Notation de l'activité herbicide DIG (Digitaria sanguinalis; dose 1 Kg m.a./ha) | Notation de l'activité herbicide ECh (Echinochloa crus-galli; dose 1 Kg m.a./ha) | Notation de l'activité herbicide PAN (Panicum milicaeum; dose 1 Kg m.a./ha) | Notation de l'activité herbicide SET (Setaria faberii; dose 1 Kg m.a./ha) | Notation de l'activité herbicide SOR (Sorghum halepense; dose 1 Kg m.a./ha) | Notation de l'activité herbicide TRZ (blé; dose 1 Kg m.a./ha) | Notation de l'activité herbicide ZEA (maïs; dose 1 Kg m.a./ha) | Notation de l'activité herbicide ORY (riz; dose 1 Kg m.a./ha) | Notation de l'activité herbicide GLY (soja; dose 1 Kg m.a./ha) | Notation de l'activité herbicide ALO (Alopecurus myosuroides; dose 0.5 Kg m.a./ha) | Notation de l'activité herbicide ECh (Echinochloa crus-galli; dose 0.5 Kg m.a./ha) | Notation de l'activité herbicide PAN (Panicum milicaeum; dose 0.5 Kg m.a./ha) | Notation de l'activité herbicide SET (Setaria faberii; dose 0.5 Kg m.a./ha) | Notation de l'activité herbicide SOR (Sorghum halepense; dose 0.5 Kg m.a./ha) | Notation de l'activité herbicide TRZ (blé; dose 0.5 Kg m.a./ha) | Notation de l'activité herbicide ZEA (maïs; dose 0.5 Kg m.a./ha) | Notation de l'activité herbicide ORY (riz; dose 0.5 Kg m.a./ha) | Notation de l'activité herbicide GLY (soja; dose 0.5 Kg m.a./ha) | further results |
| --- | --- | --- | --- | --- | --- | --- | --- | --- | --- | --- | --- | --- | --- | --- | --- | --- | --- | --- | --- |
| C=C(CS(=O)(=O)c1sc(C)nc1C)c1cccc(C)c1 [compound 47] | 5 (O à 10) | 4 (10 à 30) | 5 (O à 10) | 2 (50 à 70) | 3 (30 à 50) | 0 (90 à 100) | 1 (70 à 90) | 2 (50 à 70) | 0 (90 à 100) |  |  |  |  |  |  |  |  |  | Notation de l'activité herbicide ALO (Alopecurus myosuroides; dose 1 Kg m.a./ha): 5 (O à 10) |
| O=S(=O)(CC(O)(CBr)c1ccc(F)c(Cl)c1)c1ccsc1 (centres unmarked) [compound 65] |  |  |  |  |  |  |  |  |  | 0 (90 à 100) | 5 (O à 10) | 3 (30 à 50) | 0 (90 à 100) | 5 (O à 10) | 0 (90 à 100) | 0 (90 à 100) | 3 (30 à 50) | 0 (90 à 100) | Notation de l'activité herbicide DIG (Digitaria sanguinalis; dose 0.5 Kg m.a./ha): 5 (O à 10) |
| CC(=O)OC(CBr)(CS(=O)(=O)c1sccc1Br)c1ccccc1 (centres unmarked) [compound 60, 2-acétoxy 3-bromo 1-[(3-bromo 2-thiényl)sulfonyl] 2-phényl propane] |  |  |  |  |  |  |  |  |  | 2 (50 à 70) | 5 (O à 10) | 3 (30 à 50) | 4 (10 à 30) | 5 (O à 10) | 0 (90 à 100) | 0 (90 à 100) | 0 (90 à 100) | 0 (90 à 100) |  |
| C=C(CS(=O)(=O)C=C(C)C)c1ccccc1 [compound 73] |  |  |  |  |  |  |  |  |  |  |  |  |  |  |  |  |  |  | Notation de l'activité herbicide ALO (Alopecurus myosuroides; dose 2 Kg m.a./ha): 4 (10 à 30); Notation de l'activité herbicide DIG (Digitaria sanguinalis; dose 2 Kg m.a./ha): 3 (30 à 50); Notation de l'activité herbicide ECh (Echinochloa crus-galli; dose 2 Kg m.a./ha): 5 (O à 10); Notation de l'activité herbicide PAN (Panicum milicaeum; dose 2 Kg m.a./ha): 3 (30 à 50); Notation de l'activité herbicide SET (Setaria faberii; dose 2 Kg m.a./ha): 0 (90 à 100); Notation de l'activité herbicide SOR (Sorghum halepense; dose 2 Kg m.a./ha): 3 (30 à 50); Notation de l'activité herbicide TRZ (blé; dose 2 Kg m.a./ha): 1 (70 à 90); Notation de l'activité herbicide ZEA (maïs; dose 2 Kg m.a./ha): 2 (50 à 70); Notation de l'activité herbicide ORY (riz; dose 2 Kg m.a./ha): 0 (90 à 100); Notation de l'activité herbicide GLY (soja; dose 2 Kg m.a./ha): 0 (90 à 100) |
| O=S(=O)(CC(O)(CBr)c1cccc(F)c1)c1cccs1 (centres unmarked) [compound 53, 1-bromo 2-(3-fluorophényl) 3-(2-thiénylsulfonyl) 2-propanol] |  |  |  |  |  |  |  |  |  | 2 (50 à 70) | 4 (10 à 30) | 1 (70 à 90) | 1 (70 à 90) | 4 (10 à 30) | 0 (90 à 100) | 2 (50 à 70) | 3 (30 à 50) | 0 (90 à 100) | Notation de l'activité herbicide DIG (Digitaria sanguinalis; dose 0.5 Kg m.a./ha): 4 (10 à 30) |
| CS(=O)(=O)OCC(O)(CS(=O)(=O)c1cccs1)c1cc(Cl)cc(Cl)c1 (centres unmarked) [compound 56, 2-(3,5-dichlorophényl) 1-méthylsulfonate 3-(2-thiénylsulfonyl) 2-propanol] | 5 (O à 10) | 5 (O à 10) | 5 (O à 10) | 5 (O à 10) | 2 (50 à 70) | 2 (50 à 70) | 1 (70 à 90) | 2 (50 à 70) | 0 (90 à 100) |  |  |  |  |  |  |  |  |  |  |
| O=S(=O)(CC(O)(CBr)c1cccc(Cl)c1)c1ccsc1 (centres unmarked) [compound 64] | 5 (O à 10) | 5 (O à 10) | 5 (O à 10) | 5 (O à 10) | 2 (50 à 70) | 0 (90 à 100) | 2 (50 à 70) | 2 (50 à 70) | 0 (90 à 100) |  |  |  |  |  |  |  |  |  | Notation de l'activité herbicide ALO (Alopecurus myosuroides; dose 1 Kg m.a./ha): 3 (30 à 50) |
